Experimental data reported in ChEMBL document CHEMBL4417621, “Methods to identify tas2r modulators” (2013).
The source made the active and inactive calls. No cut-off for these calls is given here.

How the values were obtained:
HEK-293T = experiment: Effect on calcium flux in HEK293T/Galpha16-gustducin 44 cells assessed as effect on calcium flux by measuring deltaF/F0 ratio at 25 uM in presence of 100 mM sucralose by Fluo-4 dye based FLIPR assay (reference value: -0.179 +/- 0.023); format: functional
[1] = target: T1, Taste receptor type 2 member 1 (Homo sapiens) (UniProt Q9NYW7); experiment: Antagonist activity at full-length human TAS2R1 expressed in HEK293T/Galpha16-gustducin 44 cells assessed as inhibition of sucralose-induced calcium flux at 25 uM by Fluo-4 dye based FLIPR assay; format: functional, cell-based
T1 sequence (whole entry): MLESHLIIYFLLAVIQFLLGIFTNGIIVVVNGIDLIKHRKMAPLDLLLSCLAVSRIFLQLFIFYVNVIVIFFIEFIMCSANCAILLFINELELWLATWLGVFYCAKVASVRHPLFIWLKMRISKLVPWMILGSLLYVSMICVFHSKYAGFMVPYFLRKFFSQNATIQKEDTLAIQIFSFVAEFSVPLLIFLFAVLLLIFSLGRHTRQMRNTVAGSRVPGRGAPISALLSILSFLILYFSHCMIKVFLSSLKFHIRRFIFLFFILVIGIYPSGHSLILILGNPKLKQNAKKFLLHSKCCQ

[2] = target: T2, Taste receptor type 2 member 16 (Homo sapiens) (UniProt Q9NYV7); experiment: Antagonist activity at full-length human TAS2R16 expressed in HEK293T/Galpha16-gustducin 44 cells assessed as inhibition of P-beta-G-induced calcium flux by measuring P-beta-G EC50 at 25 uM by Fluo-4 dye based FLIPR assay; format: functional, cell-based
T2 sequence (whole entry): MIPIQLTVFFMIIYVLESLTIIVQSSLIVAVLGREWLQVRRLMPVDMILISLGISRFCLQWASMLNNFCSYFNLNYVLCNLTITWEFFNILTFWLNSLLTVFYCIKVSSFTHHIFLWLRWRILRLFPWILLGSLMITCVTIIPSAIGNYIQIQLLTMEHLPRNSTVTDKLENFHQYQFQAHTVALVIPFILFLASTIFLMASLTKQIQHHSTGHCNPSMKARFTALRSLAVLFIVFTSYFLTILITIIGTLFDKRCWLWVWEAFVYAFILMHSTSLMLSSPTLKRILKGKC

[3] = target: T3, Taste receptor type 2 member 31 (Homo sapiens) (UniProt P59538); experiment: Antagonist activity at full-length human TAS2R44 expressed in HEK293T/Galpha16-gustducin 44 cells assessed as effect on calcium flux by measuring deltaF/F0 ratio at 25 uM in presence of 100 mM sucralose by Fluo-4 dye based FLIPR assay (reference value: 0.352 +/- 0.030); format: functional, cell-based
T3 sequence (whole entry): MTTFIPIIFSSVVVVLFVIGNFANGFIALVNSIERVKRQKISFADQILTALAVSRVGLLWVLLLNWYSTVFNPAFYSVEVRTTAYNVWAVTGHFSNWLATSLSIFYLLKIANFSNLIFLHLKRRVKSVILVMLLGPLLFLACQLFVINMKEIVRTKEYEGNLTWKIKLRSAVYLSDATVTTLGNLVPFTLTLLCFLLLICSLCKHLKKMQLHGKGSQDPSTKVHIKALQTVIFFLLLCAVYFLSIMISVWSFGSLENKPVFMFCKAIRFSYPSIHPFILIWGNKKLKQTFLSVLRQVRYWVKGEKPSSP

[4] = target: T3, Taste receptor type 2 member 31 (Homo sapiens); experiment: Antagonist activity at full-length human TAS2R44 expressed in HEK293T/Galpha16-gustducin 44 cells assessed as effect on calcium flux by measuring deltaF/F0 ratio at 25 uM in presence of 50 mM sucralose by Fluo-4 dye based FLIPR assay (reference value: 0.192 +/- 0.011); format: functional, cell-based
[5] = target: T3, Taste receptor type 2 member 31 (Homo sapiens); experiment: Antagonist activity at full-length human TAS2R44 expressed in HEK293T/Galpha16-gustducin 44 cells assessed as effect on calcium flux by measuring deltaF/F0 ratio at 25 uM in presence of 25 mM sucralose by Fluo-4 dye based FLIPR assay (reference value: 0.110 +/- 0.019); format: functional, cell-based
[6] = target: T3, Taste receptor type 2 member 31 (Homo sapiens); experiment: Antagonist activity at full-length human TAS2R44 expressed in HEK293T/Galpha16-gustducin 44 cells assessed as effect on calcium flux by measuring deltaF/F0 ratio at 25 uM in presence of 12.5 mM sucralose by Fluo-4 dye based FLIPR assay (reference value: 0.051 +/- 0.004); format: functional, cell-based
[7] = target: T3, Taste receptor type 2 member 31 (Homo sapiens); experiment: Antagonist activity at full-length human TAS2R44 expressed in HEK293T/Galpha16-gustducin 44 cells assessed as effect on calcium flux by measuring deltaF/F0 ratio at 25 uM in presence of 6.25 mM sucralose by Fluo-4 dye based FLIPR assay (reference value: 0.027 +/- 0.029); format: functional, cell-based
[8] = target: T3, Taste receptor type 2 member 31 (Homo sapiens); experiment: Antagonist activity at full-length human TAS2R44 expressed in HEK293T/Galpha16-gustducin 44 cells assessed as effect on calcium flux by measuring deltaF/F0 ratio at 25 uM in presence of 3.125 mM sucralose by Fluo-4 dye based FLIPR assay (reference value: 0.030 +/- 0.042); format: functional, cell-based
[9] = target: T3, Taste receptor type 2 member 31 (Homo sapiens); experiment: Antagonist activity at full-length human TAS2R44 expressed in HEK293T/Galpha16-gustducin 44 cells assessed as effect on calcium flux by measuring deltaF/F0 ratio at 25 uM in presence of 1.5625 mM sucralose by Fluo-4 dye based FLIPR assay (reference value: 0.042 +/- 0.039); format: functional, cell-based
[10] = target: T3, Taste receptor type 2 member 31 (Homo sapiens); experiment: Antagonist activity at full-length human TAS2R44 expressed in HEK293T/Galpha16-gustducin 44 cells assessed as effect on calcium flux by measuring deltaF/F0 ratio at 25 uM in presence of 0.7813 mM sucralose by Fluo-4 dye based FLIPR assay (reference value: 0.038 +/- 0.042); format: functional, cell-based
[11] = target: T3, Taste receptor type 2 member 31 (Homo sapiens); experiment: Antagonist activity at full-length human TAS2R44 expressed in HEK293T/Galpha16-gustducin 44 cells assessed as effect on calcium flux by measuring deltaF/F0 ratio at 25 uM in presence of 0.3906 mM sucralose by Fluo-4 dye based FLIPR assay (reference value: 0.046 +/- 0.048); format: functional, cell-based
[12] = target: T2, Taste receptor type 2 member 16 (Homo sapiens); experiment: Antagonist activity at full-length human TAS2R16 expressed in HEK293T/Galpha16-gustducin 44 cells assessed as effect on calcium flux by measuring deltaF/F0 ratio at 25 uM in presence of 10 mM phenyl-beta-glucopyranoside by Fluo-4 dye based FLIPR assay; format: functional, cell-based
[13] = target: T2, Taste receptor type 2 member 16 (Homo sapiens); experiment: Antagonist activity at full-length human TAS2R16 expressed in HEK293T/Galpha16-gustducin 44 cells assessed as effect on calcium flux by measuring deltaF/F0 ratio at 25 uM in presence of 5 mM phenyl-beta-glucopyranoside by Fluo-4 dye based FLIPR assay; format: functional, cell-based
[14] = target: T2, Taste receptor type 2 member 16 (Homo sapiens); experiment: Antagonist activity at full-length human TAS2R16 expressed in HEK293T/Galpha16-gustducin 44 cells assessed as effect on calcium flux by measuring deltaF/F0 ratio at 25 uM in presence of 2.5 mM phenyl-beta-glucopyranoside by Fluo-4 dye based FLIPR assay; format: functional, cell-based
[15] = target: T2, Taste receptor type 2 member 16 (Homo sapiens); experiment: Antagonist activity at full-length human TAS2R16 expressed in HEK293T/Galpha16-gustducin 44 cells assessed as effect on calcium flux by measuring deltaF/F0 ratio at 25 uM in presence of 1.25 mM phenyl-beta-glucopyranoside by Fluo-4 dye based FLIPR assay; format: functional, cell-based
[16] = target: T2, Taste receptor type 2 member 16 (Homo sapiens); experiment: Antagonist activity at full-length human TAS2R16 expressed in HEK293T/Galpha16-gustducin 44 cells assessed as effect on calcium flux by measuring deltaF/F0 ratio at 25 uM in presence of 0.625 mM phenyl-beta-glucopyranoside by Fluo-4 dye based FLIPR assay; format: functional, cell-based
[17] = target: T2, Taste receptor type 2 member 16 (Homo sapiens); experiment: Antagonist activity at full-length human TAS2R16 expressed in HEK293T/Galpha16-gustducin 44 cells assessed as effect on calcium flux by measuring deltaF/F0 ratio at 25 uM in presence of 0.3125 mM phenyl-beta-glucopyranoside by Fluo-4 dye based FLIPR assay; format: functional, cell-based
[18] = target: T2, Taste receptor type 2 member 16 (Homo sapiens); experiment: Antagonist activity at full-length human TAS2R16 expressed in HEK293T/Galpha16-gustducin 44 cells assessed as effect on calcium flux by measuring deltaF/F0 ratio at 25 uM in presence of 0.1563 mM phenyl-beta-glucopyranoside by Fluo-4 dye based FLIPR assay; format: functional, cell-based
[19] = target: T2, Taste receptor type 2 member 16 (Homo sapiens); experiment: Antagonist activity at full-length human TAS2R16 expressed in HEK293T/Galpha16-gustducin 44 cells assessed as effect on calcium flux by measuring deltaF/F0 ratio at 25 uM in presence of 0.0781 mM phenyl-beta-glucopyranoside by Fluo-4 dye based FLIPR assay; format: functional, cell-based
[20] = target: T2, Taste receptor type 2 member 16 (Homo sapiens); experiment: Antagonist activity at full-length human TAS2R16 expressed in HEK293T/Galpha16-gustducin 44 cells assessed as effect on calcium flux by measuring deltaF/F0 ratio at 25 uM in presence of 0.0391 mM phenyl-beta-glucopyranoside by Fluo-4 dye based FLIPR assay; format: functional, cell-based
Homo sapiens = species on record: Homo sapiens; experiment: Inhibition of 3 mM sucralose-induced bitter sensitivity in bitter sensitive human panelists tasting solution containing 3 mM sucralose with 13 ppm test compound; format: functional, organism-based
[21] = target: T2, Taste receptor type 2 member 16 (Homo sapiens); experiment: Activation of full-length human TAS2R16 expressed in HEK293T/Galpha16-gustducin 44 cells assessed as effect on calcium flux by measuring deltaF/F0 ratio at 10 mM by Fluo-4 dye based FLIPR assay; format: functional, cell-based
[22] = target: T2, Taste receptor type 2 member 16 (Homo sapiens); experiment: Activation of full-length human TAS2R16 expressed in HEK293T/Galpha16-gustducin 44 cells assessed as effect on calcium flux by measuring deltaF/F0 ratio at 5 mM by Fluo-4 dye based FLIPR assay; format: functional, cell-based
[23] = target: T2, Taste receptor type 2 member 16 (Homo sapiens); experiment: Activation of full-length human TAS2R16 expressed in HEK293T/Galpha16-gustducin 44 cells assessed as effect on calcium flux by measuring deltaF/F0 ratio at 2.5 mM by Fluo-4 dye based FLIPR assay; format: functional, cell-based
[24] = target: T2, Taste receptor type 2 member 16 (Homo sapiens); experiment: Activation of full-length human TAS2R16 expressed in HEK293T/Galpha16-gustducin 44 cells assessed as effect on calcium flux by measuring deltaF/F0 ratio at 1.25 mM by Fluo-4 dye based FLIPR assay; format: functional, cell-based
[25] = target: T2, Taste receptor type 2 member 16 (Homo sapiens); experiment: Activation of full-length human TAS2R16 expressed in HEK293T/Galpha16-gustducin 44 cells assessed as effect on calcium flux by measuring deltaF/F0 ratio at 0.625 mM by Fluo-4 dye based FLIPR assay; format: functional, cell-based
[26] = target: T2, Taste receptor type 2 member 16 (Homo sapiens); experiment: Activation of full-length human TAS2R16 expressed in HEK293T/Galpha16-gustducin 44 cells assessed as effect on calcium flux by measuring deltaF/F0 ratio at 0.3125 mM by Fluo-4 dye based FLIPR assay; format: functional, cell-based
[27] = target: T2, Taste receptor type 2 member 16 (Homo sapiens); experiment: Activation of full-length human TAS2R16 expressed in HEK293T/Galpha16-gustducin 44 cells assessed as effect on calcium flux by measuring deltaF/F0 ratio at 0.1563 mM by Fluo-4 dye based FLIPR assay; format: functional, cell-based
[28] = target: T2, Taste receptor type 2 member 16 (Homo sapiens); experiment: Activation of full-length human TAS2R16 expressed in HEK293T/Galpha16-gustducin 44 cells assessed as effect on calcium flux by measuring deltaF/F0 ratio at 0.0781 mM by Fluo-4 dye based FLIPR assay; format: functional, cell-based
[29] = target: T2, Taste receptor type 2 member 16 (Homo sapiens); experiment: Activation of full-length human TAS2R16 expressed in HEK293T/Galpha16-gustducin 44 cells assessed as effect on calcium flux by measuring deltaF/F0 ratio at 0.0391 mM by Fluo-4 dye based FLIPR assay; format: functional, cell-based
[30] = target: T4, Taste receptor type 2 member 16 (Homo sapiens, UniProt Q9NYV7); experiment: Activation of full-length human TAS2R16 expressed in HEK293T/Galpha16-gustducin 44 cells assessed as stimulation of calcium flux by measuring deltaF/F0 ratio by Fluo-4 dye based FLIPR assay; format: functional, cell-based
T4 sequence (Q9NYV7 whole entry): T2 sequence (whole entry)

What does the source list for CC1CCC(CCCC(N)=O)C1(C)C (centres undefined)?
Activity (HEK-293T; Homo sapiens): inactive; inhibition [1]: inactive; inhibition [2]: inactive

What does the source list for CC1=CCC(C/C=C/C(=O)O)C1(C)C (centres undefined)?
Ratio [3]: 0.107; Ratio [4]: -0.025; Ratio [5]: -0.035; Ratio [6]: -0.015; Ratio [7]: 0; Ratio [8]: 0.005; Ratio [9]: 0.016; Ratio [10]: 0.01; Ratio [11]: 0.011; Ratio (HEK-293T): -0.175; Ratio [12]: 2.83; Ratio [13]: 2.65; Ratio [14]: 2.48; Ratio [15]: 2.37; Ratio [16]: 2.14; Ratio [17]: 1.55; Ratio [18]: 0.702; Ratio [19]: 0.108; Ratio [20]: -0.013; inhibition [1]: Active; inhibition (Homo sapiens): Active

With OC[C@H]1O[C@@H](Oc2ccccc2)[C@H](O)[C@@H](O)[C@@H]1O as the compound, how does the Ratio [21] read?
The Ratio was 2.88.

What about the Ratio [22] of the same compound?
Its Ratio is 2.69.

What about the Ratio [23] of the same compound?
Its Ratio is 2.58.

What about the Ratio [24] of the same compound?
Its Ratio is 2.36.

And the Ratio [25]?
Its Ratio is 2.28.

What about the Ratio [26] of the same compound?
The Ratio was 1.81.

What about the Ratio [27] of the same compound?
The Ratio was 0.926.

And the Ratio [28]?
The Ratio was 0.213.

And the Ratio [29]?
Its Ratio is 0.012.

What about the EC50 [30] of the same compound?
Its EC50 is 210 µM.
